Measurements: patent US5321030A, “Creatine analogs having antiviral activity” (priority 1991, dated 1994)
In brackets after ≈: the same amount, converted by molar mass. Where two headings read alike, the source gives them in different places.

Assays:
[1] = tested on: herpes simplex virus type 2 (HSV-2), strain E194; test: HSV-2 vaginitis in mice; format: in vivo, Swiss Webster female mice; conditions: for Mean Day to Death: virus infected
HSV-1 = test: Cytopathic effect (CPE) assay, HSV-1
HSV-2 = test: Cytopathic effect (CPE) assay, HSV-2; conditions: Human alphaherpesvirus 2, Vero, read-out: concentration required to inhibit cytopathogenicity by 60% or 70%
[2] = tested on: Pseudorabies virus, Aujeszky strain; format: cell-based; conditions: similar assay
in vivo = format: in vivo; conditions: for survival: mouse, in vivo, read-out: Survivors/Total (%); for Weight Change: uninfected, combined animal weights day 0 to day 15
in vitro = conditions: monkey, vero cells
[3] = tested on: Herpes Simplex Virus, Type 1, strain BW10168 (TK-); test: microbe, parasite or virus in culture; format: cell-based; set-up: TI50 (CD50 ÷ ED50): unit not given beside the values; conditions: for Average CPE: virus controls 4.0

Nc1nc2c(ncn2COCCO)c(=O)[nH]1 [acyclovir]
average lesion score ([1]; 25 mg/kg/day gavage, Grand Ave. (Days 3-14)): 1.5 ± 0.6
average lesion score ([1]; 25 mg/kg/day gavage, day 3): 0.1 ± 0.2
average lesion score ([1]; 25 mg/kg/day gavage, day 5): 1.3 ± 1.5
average lesion score ([1]; 25 mg/kg/day gavage, day 6): 1.3 ± 1.3
average lesion score ([1]; 25 mg/kg/day gavage, day 7): 1.7 ± 1.6
average lesion score ([1]; 25 mg/kg/day gavage, day 8): 2.1 ± 1.5
average lesion score ([1]; 25 mg/kg/day gavage, day 9): 2.1 ± 1.4
average lesion score ([1]; 25 mg/kg/day gavage, day 10): 2.0 ± 1.2
average lesion score ([1]; 25 mg/kg/day gavage, day 11): 1.9 ± 1.3
average lesion score ([1]; 25 mg/kg/day gavage, day 12): 1.9 ± 1.4
average lesion score ([1]; 25 mg/kg/day gavage, day 13): 1.8 ± 1.5
average lesion score ([1]; 25 mg/kg/day gavage, day 14): 1.8 ± 1.5
average lesion score ([1]; 50 mg/kg/day gavage, Grand Ave. (Days 3-14)): 0.8 ± 0.3
average lesion score ([1]; 50 mg/kg/day gavage, day 3): 0.0 ± 0.0
average lesion score ([1]; 50 mg/kg/day gavage, day 4): 0.2 ± 0.3
average lesion score ([1]; 50 mg/kg/day gavage, day 5): 1.0 ± 1.8
average lesion score ([1]; 50 mg/kg/day gavage, day 6): 0.5 ± 0.7
average lesion score ([1]; 50 mg/kg/day gavage, day 7): 0.8 ± 1.2
average lesion score ([1]; 50 mg/kg/day gavage, day 8): 0.8 ± 0.9
average lesion score ([1]; 50 mg/kg/day gavage, day 10): 0.9 ± 1.2
average lesion score ([1]; 50 mg/kg/day gavage, day 11): 0.9 ± 1.2
average lesion score ([1]; 50 mg/kg/day gavage, day 12): 0.9 ± 1.2
average lesion score ([1]; 50 mg/kg/day gavage, day 14): 1.0 ± 1.3
average lesion score ([1]; 100 mg/kg/day gavage, Grand Ave. (Days 3-14)): 0.7 ± 0.4
average lesion score ([1]; 100 mg/kg/day gavage, day 3): 0.1 ± 0.2
average lesion score ([1]; 100 mg/kg/day gavage, day 4): 0.2 ± 0.3
average lesion score ([1]; 100 mg/kg/day gavage, day 5): 0.4 ± 0.4
average lesion score ([1]; 100 mg/kg/day gavage, day 6): 0.5 ± 0.5
average lesion score ([1]; 100 mg/kg/day gavage, day 7): 0.6 ± 0.7
average lesion score ([1]; 100 mg/kg/day gavage, day 8): 0.8 ± 0.9
average lesion score ([1]; 100 mg/kg/day gavage, day 9): 0.9 ± 0.9
average lesion score ([1]; 100 mg/kg/day gavage, day 10): 1.4 ± 1.2
average lesion score ([1]; 100 mg/kg/day gavage, day 11): 1.0 ± 1.3
average lesion score ([1]; 100 mg/kg/day gavage, day 12): 1.1 ± 1.3
average lesion score ([1]; 100 mg/kg/day gavage, day 13): 0.8 ± 0.9
average lesion score ([1]; 100 mg/kg/day gavage, day 14): 0.7 ± 0.9
average lesion score ([1]; 200 mg/kg/day gavage, Grand Ave. (Days 3-14)): 0.6 ± 0.3
average lesion score ([1]; 200 mg/kg/day gavage, day 3): 0.1 ± 0.2
average lesion score ([1]; 200 mg/kg/day gavage, day 4): 0.1 ± 0.2
average lesion score ([1]; 200 mg/kg/day gavage, day 5): 0.4 ± 0.5
average lesion score ([1]; 200 mg/kg/day gavage, day 6): 0.2 ± 0.3
average lesion score ([1]; 200 mg/kg/day gavage, day 7): 0.4 ± 0.5
average lesion score ([1]; 200 mg/kg/day gavage, day 8): 0.7 ± 0.6
average lesion score ([1]; 200 mg/kg/day gavage, day 9): 0.9 ± 0.7
average lesion score ([1]; 200 mg/kg/day gavage, day 10): 1.0 ± 0.6
average lesion score ([1]; 200 mg/kg/day gavage, day 11): 0.7 ± 0.7
average lesion score ([1]; 200 mg/kg/day gavage, day 12): 0.7 ± 0.7
average lesion score ([1]; 200 mg/kg/day gavage, day 13): 0.8 ± 0.7
average lesion score ([1]; 200 mg/kg/day gavage, day 14): 0.7 ± 0.7
activity in vaginitis model ([1]; 5% cream topical): very effective
average lesion score ([1]; acyclovir 5% cream topical, Grand Ave. (Days 3-14)): 0.3 ± 0.2
average lesion score ([1]; acyclovir 5% cream topical, day 3): 0.1 ± 0.1
average lesion score ([1]; acyclovir 5% cream topical, day 4): 0.1 ± 0.1
average lesion score ([1]; acyclovir 5% cream topical, day 5): 0.1 ± 0.2
average lesion score ([1]; acyclovir 5% cream topical, day 6): 0.2 ± 0.2
average lesion score ([1]; acyclovir 5% cream topical, day 7): 0.2 ± 0.2
average lesion score ([1]; acyclovir 5% cream topical, day 8): 0.2 ± 0.3
average lesion score ([1]; acyclovir 5% cream topical, day 9): 0.2 ± 0.2
average lesion score ([1]; acyclovir 5% cream topical, day 10): 0.6 ± 0.8
average lesion score ([1]; acyclovir 5% cream topical, day 11): 0.5 ± 0.7
average lesion score ([1]; acyclovir 5% cream topical, day 12): 0.3 ± 0.6
average lesion score ([1]; acyclovir 5% cream topical, day 13): 0.3 ± 0.6
average lesion score ([1]; acyclovir 5% cream topical, day 14): 0.3 ± 0.6
Mean Day to Death ([1]; ACV 25 mg/kg): 10.4 ± 2.5
Mean Day to Death ([1]; ACV 50 mg/kg): 11.3 ± 2.1
Mean Day to Death ([1]; ACV 100 mg/kg): 12.0 ± 1.4
Mean Day to Death ([1]; ACV 200 mg/kg): 11.3 ± 2.5
EC65 (HSV-1; Human alphaherpesvirus 1, Vero, read-out: dose required to inhibit cytopathogenicity by 65%): 0.97 µM
EC50 (HSV-1; Human alphaherpesvirus 1, read-out: in vitro ED50): 7 µM
EC (60 or 70) (HSV-2): 1.95 µM
effect against Pseudorabies virus [2]: ineffective
survival (in vivo; 25 mg/kg): 100%
survival (in vivo; 50 mg/kg): 100%
survival (in vivo; 100 mg/kg): 100%
survival (in vivo; 200 mg/kg): 100%
Weight Change (in vivo; ACV 25 mg/kg): 2.8 g
Weight Change (in vivo; ACV 50 mg/kg): 4.0 g
Weight Change (in vivo; ACV 100 mg/kg): 3.5 g
Weight Change (in vivo; ACV 200 mg/kg): 4.8 g
CC50 (in vitro): > 1000 µg/mL
Average CPE ([3]; Acyclovir 1.0 μg/ml): 4.0
Average CPE ([3]; Acyclovir 3.2 μg/ml): 3.2
Average CPE ([3]; Acyclovir 10 μg/ml): 1.5
Average CPE ([3]; Acyclovir 32 μg/ml): 0.3
Average CPE ([3]; Acyclovir 100 μg/ml): 0.5
Average CPE ([3]; Acyclovir 316 μg/ml): 0.2
Average CPE ([3]; Acyclovir 1000 μg/ml): 0
EC50 ([3]; Human alphaherpesvirus 1, Vero, read-out: ED50, Vero cells, Table 8): 10.6 µg/mL (≈ 47.1 µM)
TI50 (CD50 ÷ ED50) ([3]; Vero cells, Table 8): > 94
